The text below walks through data of patent US20200069648A1, “HALOALLYLAMINE PYRAZOLE DERIVATIVE INHIBITORS OF LYSYL OXIDASES AND USES THEREOF” (Pharmaxis Ltd., priority 2017, published 2020).

In experiment [1] the target is T1, Bovine LOX (Bos taurus, UniProt P33072).
T1 sequence (P33072 170-418): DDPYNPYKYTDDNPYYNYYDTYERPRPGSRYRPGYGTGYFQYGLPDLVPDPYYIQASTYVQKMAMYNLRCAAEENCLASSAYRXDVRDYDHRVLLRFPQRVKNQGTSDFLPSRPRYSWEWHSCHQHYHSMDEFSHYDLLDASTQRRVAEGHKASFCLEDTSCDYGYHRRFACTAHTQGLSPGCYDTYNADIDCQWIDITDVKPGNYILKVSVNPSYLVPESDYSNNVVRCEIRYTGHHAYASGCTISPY
As to the kind of experiment: LOX amine oxidase inhibition, peroxidase-coupled Amplex Red assay. Format: biochemical. To be noted: 30 min preincubation at 37° C., putrescine substrate. A digest of the protocol: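 Bovine LOX in 1.2 M urea, 50 mM sodium borate pH 8.2 […]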

The target in experiment [2] is T2, Human LOXL2 (Homo sapiens, UniProt Q9Y4K0).
T2 sequence (Q9Y4K0 26-774): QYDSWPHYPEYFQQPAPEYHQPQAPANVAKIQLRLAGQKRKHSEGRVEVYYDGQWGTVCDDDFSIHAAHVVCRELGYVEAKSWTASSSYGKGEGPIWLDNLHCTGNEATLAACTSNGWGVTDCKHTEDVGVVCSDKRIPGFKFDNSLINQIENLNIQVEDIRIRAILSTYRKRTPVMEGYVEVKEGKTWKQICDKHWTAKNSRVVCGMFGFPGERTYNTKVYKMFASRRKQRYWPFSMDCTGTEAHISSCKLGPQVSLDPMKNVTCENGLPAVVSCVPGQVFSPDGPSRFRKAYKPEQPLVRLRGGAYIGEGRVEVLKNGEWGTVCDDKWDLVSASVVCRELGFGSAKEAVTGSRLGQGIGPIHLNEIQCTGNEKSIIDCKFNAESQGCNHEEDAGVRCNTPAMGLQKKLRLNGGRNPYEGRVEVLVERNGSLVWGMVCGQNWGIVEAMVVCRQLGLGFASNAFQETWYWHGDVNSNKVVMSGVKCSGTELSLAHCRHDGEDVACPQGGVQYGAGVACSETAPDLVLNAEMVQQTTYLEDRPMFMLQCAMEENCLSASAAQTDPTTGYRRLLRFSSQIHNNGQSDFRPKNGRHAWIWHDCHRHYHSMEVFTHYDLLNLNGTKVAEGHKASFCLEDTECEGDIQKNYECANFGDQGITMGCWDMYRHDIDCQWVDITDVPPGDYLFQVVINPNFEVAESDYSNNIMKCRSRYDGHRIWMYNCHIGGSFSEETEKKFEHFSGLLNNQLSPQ
As to the kind of experiment: LOXL2 amine oxidase inhibition, peroxidase-coupled Amplex Red assay. To be noted: 30 min preincubation at 37° C., putrescine substrate. Format: biochemical. A digest of the protocol:
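Enzyme preincubated 30 min at 37 °C with compound (11-point curve) in 1.2 M urea, 50 mM borate pH 8.2 plus 1 μM mofegiline and 0.5 mM pargyline; putrescine at twice KM (10 mM for LOXL2), Amplex Red and HRP added. Fluorescence (565/590 nm) read every 2.5 min for 30 min; IC50 from kinetic slopes.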

Molecules are shown by their SMILES. Structures can show the parent of a compound that is named as a salt.

Turning to `Cc1c(Cc2ccc(S(=O)(=O)N(C)C)cc2)c(C(=O)N(C)C)nn1C/C(F)=C/CN` [Compound 32, (Z)-1-(4-amino-2-fluorobut-2-enyl)-4-(4-(N,N-dimethylsulfamoyl)benzyl)-N,N,5-trimethyl-1H-pyrazole-3-carboxamide hydrochloride], the IC50 is under 10 µM in experiment [1] and under 1 µM in experiment [2].

Regarding `CC(C)c1nn(C/C(F)=C/CN)c(C(C)O)c1Cc1ccc(S(=O)(=O)N(C)C)c(Cl)c1` (stereo not shown) [Compound 59, (Z)-4-((1-(4-amino-2-fluorobut-2-en-1-yl)-5-(1-hydroxyethyl)-3-isopropyl-1H-pyrazol-4-yl)methyl)-2-chloro-N,N-dimethylbenzenesulfonamide hydrochloride], the IC50 in experiment [1] was over 10 µM; in experiment [2], under 1 µM.

Take `CC(C)c1nn(C/C(F)=C/CN)c(C(C)C)c1Cc1ccc(S(=O)(=O)N(C)C)c(Cl)c1` [Compound 60, (Z)-4-((1-(4-amino-2-fluorobut-2-en-1-yl)-3,5-diisopropyl-1H-pyrazol-4-yl)methyl)-2-chloro-N,N-dimethylbenzenesulfonamide hydrochloride]: the IC50 in experiment [1] is under 10 µM; in experiment [2], under 1 µM.

For `Cc1nn(C/C(F)=C/CN)c(C(=O)N(C)C)c1Cc1ccc(S(=O)(=O)N(C)C)c(Cl)c1` [Compound 61, (Z)-1-(4-amino-2-fluorobut-2-en-1-yl)-4-(3-chloro-4-(N,N-dimethylsulfamoyl)benzyl)-N,N,3-trimethyl-1H-pyrazole-5-carboxamide hydrochloride], the values for the IC50 in experiment [1] and in experiment [2] were over 10 µM and under 1 µM, respectively.

Consider `Cc1nn(C/C(F)=C/CN)c(C(=O)NC(C)(C)C)c1Cc1ccc(S(=O)(=O)N(C)C)c(Cl)c1` [Compound 62, (Z)-1-(4-amino-2-fluorobut-2-en-1-yl)-N-(tert-butyl)-4-(3-chloro-4-(N,N-dimethylsulfamoyl)benzyl)-3-methyl-1H-pyrazole-5-carboxamide hydrochloride], for which the IC50 was under 10 µM in experiment [1] and under 1 µM in experiment [2].

A word on the IC50: it is the midpoint of a concentration-inhibition curve. The low end stands for inhibition by little substance, the high end for a need for much substance.
